Assay results reported in patent publication US20100152267A1, “NOVEL RIFAMYCIN 3,4-(3-SUBSTITUTED AMINOMETHYL) FUSED PYRROLO DERIVATIVES” (priority 2008, published 2010).
≈ marks a conversion by molar mass, not a printed value.

Assays:
Assay type in all cases: cell-based
[1] = system: Methicillin-resistant Staphylococcus aureus OC 2878; assay: MIC by microdilution broth method (NCCLS), D Strain; details: read-out: MIC D Strain
Experimental: (§1) Minimum inhibitory concentration (MIC) is an indicator of in vitro antibacterial activity. […] The in vitro antimicrobial activity of representative compounds of the present invention was determined by the microdilution broth method following the test method from the National Committee for Clinical Laboratory Standards (NCCLS). This method is described in the NCCLS Document M7-A4, Vol. 17, No. 2, “Methods for Dilution Antimicrobial Susceptibility Test for Bacteria that Grow Aerobically—Fourth Edition”, which is incorporated herein by reference.
(§2) In this method two-fold serial dilutions of test compound in cation adjusted Mueller-Hinton broth were added to wells in microdilution trays. The test organisms were prepared by adjusting the turbidity of actively growing broth cultures so that the final concentration of test organism after it is added to the wells was approximately 5×10^4 CFU/well. Following inoculation of the microdilution trays, the trays were incubated at 35° C. for 16-20 hours and then read. The amount of growth in the wells containing the test compound was compared with the amount of growth in the growth-control wells (no test compound) used in each tray.
(§3) Representative compounds of the present invention were tested against a variety of pathogenic bacteria with results as listed in Table 2, below.

[2] = system: Staphylococcus aureus OC4172; assay: MIC by microdilution broth method (NCCLS), C Strain; details: cation adjusted Mueller-Hinton broth, 35° C., 16-20 hours
Experimental: as §1, §2, §3

[3] = system: Enterococcus faecium OC 3312 vancomycin resistant; assay: MIC by microdilution broth method (NCCLS), A Strain; details: read-out: MIC A Strain
Experimental: as §1, §2, §3

[4] = system: Methicillin-resistant Staphylococcus aureus OC 3726 COL; assay: MIC by microdilution broth method (NCCLS), B Strain; details: read-out: MIC B Strain
Experimental: as §1, §2, §3

| SMILES | MIC [1] [µg/mL] | MIC [2] [µg/mL] | MIC [3] [µg/mL] | MIC [4] [µg/mL] |
| --- | --- | --- | --- | --- |
| CO[C@H]1/C=C/O[C@@]2(C)Oc3c(C)c(O)c4c(O)c(c5c(CN)c[nH]c5c4c3C2=O)NC(=O)/C(C)=C\C=C\[C@H](C)[C@H](O)[C@@H](C)[C@@H](O)[C@@H](C)[C@H](OC(C)=O)[C@@H]1C [Compound 1] | 0.25 (≈ 0.333 µM) | 0.12 (≈ 0.16 µM) | < 1 | 0.25 (≈ 0.333 µM) |
| CO[C@H]1/C=C/O[C@@]2(C)Oc3c(C)c(O)c4c(O)c(c5c(CN6CCCCC6)c[nH]c5c4c3C2=O)NC(=O)/C(C)=C\C=C\[C@H](C)[C@H](O)[C@@H](C)[C@@H](O)[C@@H](C)[C@H](OC(C)=O)[C@@H]1C [Compound 2] | 4 (≈ 4.89 µM) | 4 (≈ 4.89 µM) | 8 (≈ 9.78 µM) | 4 (≈ 4.89 µM) |
| CO[C@H]1/C=C/O[C@@]2(C)Oc3c(C)c(O)c4c(O)c(c5c(CN(C)Cc6ccc(N7CCN(C)CC7)cc6)c[nH]c5c4c3C2=O)NC(=O)/C(C)=C\C=C\[C@H](C)[C@H](O)[C@@H](C)[C@@H](O)[C@@H](C)[C@H](OC(C)=O)[C@@H]1C [Compound 3] | 1 (≈ 1.05 µM) | 1 (≈ 1.05 µM) | 2 (≈ 2.1 µM) | 1 (≈ 1.05 µM) |
| CO[C@H]1/C=C/O[C@@]2(C)Oc3c(C)c(O)c4c(O)c(c5c(CNCc6ccc(N7CCN(C)CC7)cc6)c[nH]c5c4c3C2=O)NC(=O)/C(C)=C\C=C\[C@H](C)[C@H](O)[C@@H](C)[C@@H](O)[C@@H](C)[C@H](OC(C)=O)[C@@H]1C [Compound 4] | 0.5 (≈ 0.533 µM) | 1 (≈ 1.07 µM) | 1 (≈ 1.07 µM) | 0.5 (≈ 0.533 µM) |
| CO[C@H]1/C=C/O[C@@]2(C)Oc3c(C)c(O)c4c(O)c(c5c(CN(Cc6ccc(N7CCN(C)CC7)cc6)Cc6ccc(N7CCN(C)CC7)cc6)c[nH]c5c4c3C2=O)NC(=O)/C(C)=C\C=C\[C@H](C)[C@H](O)[C@@H](C)[C@@H](O)[C@@H](C)[C@H](OC(C)=O)[C@@H]1C [Compound 5] | 0.25 (≈ 0.222 µM) | 0.25 (≈ 0.222 µM) | 1 (≈ 0.888 µM) | 0.25 (≈ 0.222 µM) |
